Measured values reported in ChEMBL document CHEMBL1201862, “PubChem BioAssay data set” (2004).
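Results reflect a 48-hour exposure of cells in 96-well plates to compound at five concentrations. Abbreviation: GI50, concentration required for 50% inhibition of growth.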 The source made the active and inactive calls. Cut-off read from the data, not from the text of the source: active = GI50 up to about 1.1 µM and inactive = higher.

How the values were obtained:
Experiment in all cases: inhibition of tumour cell growth, NCI panel, 48 h
IGROV-1 = test system: IGROV-1
MCF7 = test system: MCF7
SNB-19 = test system: SNB-19
HOP-92 = test system: HOP-92
NCI-H23 = test system: NCI-H23
T47D = test system: T47D
A549 = test system: A549
SK-MEL-2 = test system: SK-MEL-2
CCRF-CEM = test system: CCRF-CEM
HT-29 = test system: HT-29
MOLT-4 = test system: MOLT-4
UACC-62 = test system: UACC-62
RPMI-8226 = test system: RPMI-8226
UO-31 = test system: UO-31
SF-295 = test system: SF-295
BT-549 = test system: BT-549
A498 = test system: A498
K562 = test system: K562

| Structure (SMILES) | GI50 (IGROV-1) | GI50 (MCF7) | GI50 (SNB-19) | GI50 (HOP-92) | GI50 (NCI-H23) | GI50 (T47D) | GI50 (A549) | GI50 (SK-MEL-2) | GI50 (CCRF-CEM) | GI50 (HT-29) | GI50 (MOLT-4) | GI50 (UACC-62) | GI50 (RPMI-8226) | GI50 (UO-31) | GI50 (SF-295) | GI50 (BT-549) | GI50 (A498) | GI50 (K562) |
| --- | --- | --- | --- | --- | --- | --- | --- | --- | --- | --- | --- | --- | --- | --- | --- | --- | --- | --- |
| CCc1nc(N)nc(N)c1-c1ccc(NC)c([N+](=O)[O-])c1 | 0.904 µM (active) | 2.48 µM (inactive) | 9.08 µM (inactive) | 8.81 µM (inactive) | 0.944 µM (active) | 21.4 µM (inactive) | 0.192 µM (active) | 21.2 µM (inactive) | 0.531 µM (active) | 0.44 µM (active) | 1 µM (active) | 0.531 µM (active) | 3.72 µM (inactive) | 7.93 µM (inactive) | 0.753 µM (active) | 26.1 µM (inactive) | 2.43 µM (inactive) | 0.0631 µM (active) |
| O=C(O)c1nn(-c2ccc(Cl)cc2)c2c1C(=O)c1ccccc1C2=O | > 100 µM (inactive) | > 100 µM (inactive) | > 100 µM (inactive) | > 100 µM (inactive) | 37.5 µM (inactive) | > 100 µM (inactive) | > 100 µM (inactive) | > 100 µM (inactive) | < 0.01 µM (active) | > 100 µM (inactive) | 22 µM (inactive) | > 100 µM (inactive) | > 100 µM (inactive) | > 100 µM (inactive) | > 100 µM (inactive) | > 100 µM (inactive) | > 100 µM (inactive) | > 100 µM (inactive) |
| O=C(/C=C/c1ccc(-c2ccccc2)cc1)NCc1ccc(C(=O)NCCc2ccccc2)cc1 | > 100 µM (inactive) | 25.4 µM (inactive) | > 100 µM (inactive) | 54.6 µM (inactive) | > 100 µM (inactive) | > 100 µM (inactive) | > 100 µM (inactive) | > 100 µM (inactive) | 18.5 µM (inactive) | 28.1 µM (inactive) | 96.6 µM (inactive) | > 100 µM (inactive) | > 100 µM (inactive) | > 100 µM (inactive) | > 100 µM (inactive) | > 100 µM (inactive) | > 100 µM (inactive) | 88.5 µM (inactive) |
| O=C1C(CN2CCCC2)CCC1CN1CCCC1 (stereo not drawn) | 27.9 µM (inactive) | 19.4 µM (inactive) | > 100 µM (inactive) | 14.4 µM (inactive) | 20.7 µM (inactive) | 17.4 µM (inactive) | > 100 µM (inactive) | 21.2 µM (inactive) | 3.52 µM (inactive) | 20 µM (inactive) | 5.31 µM (inactive) | 17.5 µM (inactive) | 3.59 µM (inactive) | 17.8 µM (inactive) | > 100 µM (inactive) | 17.5 µM (inactive) | > 100 µM (inactive) | 2.9 µM (inactive) |
| Cc1ccc2nc(/C=N/c3ccccc3Cl)cc(C)c2c1 | 18.9 µM (inactive) | 17.5 µM (inactive) | 30.2 µM (inactive) | 25.4 µM (inactive) | 22.2 µM (inactive) | 22.4 µM (inactive) | > 100 µM (inactive) | 40.2 µM (inactive) | 4.89 µM (inactive) | 18.4 µM (inactive) | 5.79 µM (inactive) | 14.6 µM (inactive) | 8.75 µM (inactive) | 16.5 µM (inactive) | 21.9 µM (inactive) | 16.1 µM (inactive) | > 100 µM (inactive) | 19.1 µM (inactive) |
| O=C(O)CSSCC(=O)O | > 100 µM (inactive) | > 100 µM (inactive) | > 100 µM (inactive) | > 100 µM (inactive) | > 100 µM (inactive) | > 100 µM (inactive) | > 100 µM (inactive) | > 100 µM (inactive) | > 100 µM (inactive) | > 100 µM (inactive) | > 100 µM (inactive) | > 100 µM (inactive) | > 100 µM (inactive) | > 100 µM (inactive) | > 100 µM (inactive) | > 100 µM (inactive) | > 100 µM (inactive) | > 100 µM (inactive) |
| CS(=O)(=O)N1CC(CCl)c2ccc([N+](=O)[O-])cc21 (stereo not drawn) | > 100 µM (inactive) | > 100 µM (inactive) | > 100 µM (inactive) | > 100 µM (inactive) | > 100 µM (inactive) | > 100 µM (inactive) | > 100 µM (inactive) | > 100 µM (inactive) | > 100 µM (inactive) | > 100 µM (inactive) | > 100 µM (inactive) | > 100 µM (inactive) | > 100 µM (inactive) | > 100 µM (inactive) | > 100 µM (inactive) | > 100 µM (inactive) | > 100 µM (inactive) | > 100 µM (inactive) |
| COc1cc(OC)c2c(O)c(S(=O)(=O)c3ccc(C)cc3)c(=O)oc2c1 | > 100 µM (inactive) | > 100 µM (inactive) | 93.3 µM (inactive) | > 100 µM (inactive) | > 100 µM (inactive) | > 100 µM (inactive) | > 100 µM (inactive) | > 100 µM (inactive) | 78.2 µM (inactive) | > 100 µM (inactive) | > 100 µM (inactive) | > 100 µM (inactive) | 76.7 µM (inactive) | > 100 µM (inactive) | > 100 µM (inactive) | > 100 µM (inactive) | > 100 µM (inactive) | 69.5 µM (inactive) |
| CN(C)CCC(=O)[C@@]1(O)CC[C@H]2[C@@H]3CC=C4C[C@@H](O)CC[C@]4(C)[C@H]3CC[C@@]21C | 17.8 µM (inactive) | 4.38 µM (inactive) | 25.6 µM (inactive) | 20.9 µM (inactive) | 23.6 µM (inactive) | 4.11 µM (inactive) | 37.1 µM (inactive) | 15.9 µM (inactive) | 5.25 µM (inactive) | 18.9 µM (inactive) | 13.9 µM (inactive) | 16.7 µM (inactive) | 1.58 µM (inactive) | 15.6 µM (inactive) | 24.9 µM (inactive) | 17.9 µM (inactive) | 16.1 µM (inactive) | 18.2 µM (inactive) |
| CC(O)CC(=O)CO[C@H]1[C@H](O)[C@@H](O)[C@@H](O)[C@@H]2NC(=O)c3c(cc4c(c3O)OCO4)[C@H]21 (stereo partly drawn) | < 0.0207 µM (active) | 0.0194 µM (active) | < 0.0156 µM (active) | 0.0377 µM (active) | 0.0335 µM (active) | 0.0222 µM (active) | 0.042 µM (active) | 0.0363 µM (active) | 0.0184 µM (active) | 0.0258 µM (active) | 0.0313 µM (active) | 0.0541 µM (active) | 0.0226 µM (active) | 0.115 µM (active) | 0.0299 µM (active) | 0.0509 µM (active) | 0.0218 µM (active) | 0.0392 µM (active) |
| COc1ccc(-c2cc(-c3ccccc3)nc(/N=C\c3ccccc3)n2)c(O)c1 | 11.5 µM (inactive) | 1.64 µM (inactive) | > 36.5 µM (inactive) | > 100 µM (inactive) | > 100 µM (inactive) | 5.62 µM (inactive) | 26.4 µM (inactive) | 6.52 µM (inactive) | 4.06 µM (inactive) | > 27.9 µM (inactive) | 4.04 µM (inactive) | > 27.7 µM (inactive) | 2.14 µM (inactive) | 3.99 µM (inactive) | 97.7 µM (inactive) | > 31.3 µM (inactive) | > 100 µM (inactive) | 2.44 µM (inactive) |
